Assay [1] concerns the target Human immunodeficiency virus type 1 integrase (Human immunodeficiency virus 1, UniProt Q7ZJM1). As to the kind of experiment: Inhibition of recombinant HIV1 integrase expressed in Escherichia coli.
Assay [2] deals with Human immunodeficiency virus 1. Nature of the assay: Antiviral activity against HIV1 3B in MT4 cells at 200 uM. It is filed as functional, organism-based.
The mark [3] stands for this setting: Human immunodeficiency virus 1, 3B.

Each structure is given as a SMILES string. Calls of active or inactive are those of the source. No cut-off for these calls is given here. Some results are limits rather than exact numbers.

Human immunodeficiency virus type 1 integrase, sequence (Q7ZJM1 whole entry): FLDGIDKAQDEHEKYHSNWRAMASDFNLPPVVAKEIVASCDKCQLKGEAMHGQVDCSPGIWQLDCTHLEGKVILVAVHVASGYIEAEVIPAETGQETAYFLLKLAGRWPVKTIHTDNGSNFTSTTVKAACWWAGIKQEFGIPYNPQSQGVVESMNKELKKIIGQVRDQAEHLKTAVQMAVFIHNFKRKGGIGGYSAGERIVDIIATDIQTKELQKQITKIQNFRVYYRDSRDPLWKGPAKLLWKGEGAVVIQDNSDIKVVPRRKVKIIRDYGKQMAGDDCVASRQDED

In the case of `COc1ccc(/C=C/C(=O)OCC(=O)O)cc1OC`, in assay [1], the IC50 (in general, the concentration that inhibits the measured activity by half) was greater than 300 µM. `CC(OC(=O)/C=C/c1ccc(O)c(O)c1)C(=O)O` (centres undefined): the IC50 in assay [1] came to 128 µM. In addition, the result in assay [2] was inactive. On to `O=C(O)COC(=O)/C=C/c1ccc(O)c(O)c1`, for which the IC50 in assay [1] was 10.5 µM. As to `O=C(/C=C/c1ccc(O)c(O)c1)O[C@H](C(=O)O)[C@@H](OC(=O)/C=C/c1ccc(O)c(O)c1)C(=O)O`, in assay [2] (setting [3]), the CC50 (commonly the concentration that lowers cell viability or growth by half) was greater than 42.2 µM and the EC50 – broadly, the concentration giving half of the maximal effect – was 7.5 µM. For the compound `CC(NC(=O)/C=C/c1ccc(O)c(O)c1)C(=O)O` (centres undefined), in assay [1], the IC50 was determined as 148 µM. Regarding `O=C(O)CNC(=O)/C=C/c1ccc(O)c(O)c1`, the IC50 in assay [1] worked out at 172 µM.

Turning to `O=C(/C=C/c1ccc(O)c(O)c1)NC(Cc1ccccc1)C(=O)O` (centres undefined), the IC50 in assay [1] came to 95 µM. For `O=C(/C=C/c1ccc(O)c(O)c1)NC(Cc1ccc(O)c(O)c1)C(=O)O` (centres undefined), in assay [1], the IC50 stood at 12 µM. The result in assay [2] was inactive. As for `COc1cc(/C=C/C(=O)OCC(=O)O)ccc1O`, the IC50 in assay [1] is greater than 300 µM. In the case of `CC(C)CC(NC(=O)/C=C/c1ccc(O)c(O)c1)C(=O)O` (centres undefined), the IC50 in assay [1] came out at 130 µM.

Regarding `O=C(/C=C/c1ccc(O)c(O)c1)NC(Cc1ccc(O)cc1)C(=O)O` (centres undefined), the IC50 in assay [1] came out at 129 µM.

For the origin of these results see ChEMBL document CHEMBL1147999, “Caffeoylglycolic and caffeoylamino acid derivatives, halfmers of L-chicoric acid, as new HIV-1 integrase inhibitors” (Eur J Med Chem, 2007).
